This passage reports logP results from the OPERA property sets (Mansouri et al. 2018).

For orientation: logP means a log measure of how a compound divides between an organic and an aqueous phase. Higher therefore signals higher lipophilicity.

For the molecule `O=NN(CCF)C(=O)NC1CSCSC1`, the logP came out at 1.54.
Molecule `CCOC(=O)C(=Cc1ccc(Cl)cc1)C(=O)OCC` registered a logP of 3.96.
The result for `O=[N+]([O-])c1nccn1CCCOc1ccccc1` reads 2.38; that for `CN(C)C(=O)c1ccoc1`, 0.24; that for `Cc1cccc(C)c1N=C1NCCN1`, 1.45.
`C[N+](C)(C)Cc1ccncc1.[Br-]` registered a logP of -3.95.
Regarding `CC(=O)C(C#N)=NNc1ccc(Cl)c(Cl)c1`, the logP stood at 4.56.
The result for `NNC(=O)c1ccc2ncccc2c1` reads 0.35; that for `O=S1(=O)NC(c2ccco2)=Nc2ccccc21`, 1.06; that for `CC1=Nc2ccc(C)cc2S(=O)(=O)N1`, 0.81.
`Nc1ccc(Cc2cnc(N)nc2N)cc1` showed a logP of 0.22.
For the molecule `CCCCCCc1nnc(SC)n(N)c1=O`, the logP was determined as 2.68.
In the case of `O=NN1CCC(O)CC1`, the logP was -0.89.
In turn, `O=C(O)C1CCc2ccccc2O1` (stereo unspecified) gave a logP of 1.9.
The result for `COC12C(COC(N)=O)C3=C(C(=O)C(C)=C(Nc4ccccc4)C3=O)N1CC1NC12` (stereo unspecified) reads 1.3; that for `CSC(C)=NOC(=O)N(C)SN(C)C(=O)OC(C)(C)C`, 2.8; that for `COc1cc(Cc2cnc(N)nc2N)ccc1C(C)(C)O`, 1.38.
In turn, `CCCOn1c(=O)[nH]c(C)c(Br)c1=O` registered a logP of 0.76.
Molecule `O=C(NCCO)c1cccnc1` registered a logP of -0.11.
For `CCOP(=O)(OCC)Oc1ccc(SC)cc1C` the value was 3.21; for `COc1cn[nH]c1`, 0.37.
For `CCSc1nnc(C(C)C)c(=O)n1N`, the logP worked out at 1.52.
Take `CCCCCCC1OC(=O)c2ccccc21` (stereo unspecified): the logP is 3.55.
Regarding `OCCCCCCn1nnc2ccccc21`, the logP was 1.71.
For the molecule `COc1ccc(OC(=O)CNC(=O)c2ccccc2)cc1`, the logP was 2.28.
`O=S(=O)(Nc1cccc(C(F)(F)F)c1)C(F)(F)F` had a logP of 4.5.
On to `CCCCCCOC(=O)N(C)SN(C)C(=O)ON=C(C)SC`, for which the logP worked out at 4.2.
For `CC1C2CCC3C(O)C2(CC(O)C2(O)C1CC(O)C2(C)C)CC3(C)O` (stereo unspecified) the value was 1.51; for `Cc1ncc([N+](=O)[O-])n1CCCS(C)(=O)=O`, -1; for `FC(F)(F)c1nc2ncccc2[nH]1`, 1.38.
Molecule `NC1CC2OC1c1ccccc12` (stereo unspecified) yielded a logP of 0.75.
The result for `NS(=O)(=O)NS(=O)(=O)Nc1ccccc1` reads 0.02; that for `COc1ccc(Br)cc1Cc1cnc(N)nc1N`, 2.44; that for `CCC(C)NC(=O)C=C(C)c1ccc(Cl)cc1` (stereo unspecified), 3.92.
In turn, `CNC(=O)C1CCCN1C(C)=O` (stereo unspecified) displayed a logP of -1.19.
As to `CSc1nc2ccc(Cl)cc2[nH]1`, the logP amounted to 3.22.
Turning to `CSCN1C(=O)CN=C(c2ccccc2)c2cc(Cl)ccc21`, the logP stood at 3.32.
Turning to `Clc1cccc(-c2ccccc2)c1Cl`, the logP stood at 5.02.
The molecule `CNN=CCCc1ccccc1` showed a logP of 1.
For `CCOC(=O)C(C#N)=NNc1cc(C(F)(F)F)ccc1Cl` the value was 4.45; for `COc1ccc(C=C[N+](=O)[O-])cc1`, 2.2.
Regarding `CN(N=O)C1CCCCC1`, the logP turned out to be 1.43.
Molecule `COc1ccccc1C1=NCC(=O)Nc2ccc(Cl)cc21` had a logP of 2.63.
Regarding `CSC(C)=NOC(=O)N(C)SN(C)C(=O)C1CC1`, the logP was 1.7.
Regarding `CN(C)/N=N/c1cc(C(N)=O)cc(C(N)=O)c1`, the logP amounted to 0.22.
The result for `Cc1cccc2c([N+](=O)[O-])cc[n+]([O-])c12` reads 1.59; that for `Nc1nnc(S(N)(=O)=O)s1`, -0.9.
Molecule `Nc1cnc2ccccc2n1` had a logP of 1.5.
With `Nc1cccc2nccnc12`, the logP was 1.29.
`Cn1c(C(O)CO)cnc1[N+](=O)[O-]` (stereo unspecified) yielded a logP of -0.89.
`O=C1CN=C(c2ccc(Cl)cc2)c2cc(Br)ccc2N1`: the logP came to 3.78.
The molecule `OCCCn1nnc2ccccc21` came in with a logP of 0.91.
In the case of `ClC1=C(Cl)C(Cl)C(Cl)C(Cl)C1Cl` (stereo unspecified), the logP was found to be 4.31.
In the case of `O=C1C=C(Nc2ccccc2)C(=O)c2ccccc21`, the logP came to 2.84.
For the molecule `CN(C)/N=N/c1ccccc1Cl`, the logP worked out at 3.03.
The result for `COc1ccc(Cc2cnc(N)nc2N)cc1Br` reads 1.88; that for `C=CCS(=O)(=O)c1cc(OC)c(OC)c(OC)c1`, 1.34.
The molecule `CC1(C)SC2C(NC(=O)C(Cl)c3ccccc3)C(=O)N2C1C(=O)O` (stereo unspecified) came in with a logP of 2.3.
For `COc1cc(C)n(-c2ccncn2)n1` the value was 2.21; for `Nc1ccc(C(=O)Oc2ccc(Cl)cc2Cl)c(O)c1`, 4.27; for `CCCCNP(=O)(OC)Oc1cc(Cl)c(Cl)cc1Cl` (stereo unspecified), 4.18.
`CN(C)C(=O)Oc1ccc(Cl)cc1` showed a lipophilicity (logP) of 2.27.
`CN1CCN(C(=O)c2ccccc2)CC1` yielded a logP of 0.35.
`CC1=Nc2cc(C)ccc2S(=O)(=O)N1` came in with a logP of 0.74.
Molecule `CN(C)c1cc(Cc2cnc(N)nc2N)cc(N(C)C)c1` displayed a logP of 1.6.
For the molecule `CC1=Nc2cc([N+](=O)[O-])c(Cl)cc2S(=O)(=O)N1`, the logP was 1.42.
Molecule `CCc1cc(C(=O)NN)ccn1` showed a logP of 0.12.
For the molecule `CS(=O)(=O)Nc1cccc(NS(C)(=O)=O)c1`, the logP was 0.07.
The molecule `CSc1nnc(CCC(C)C)c(=O)n1N` showed a logP of 1.85.
For `CCCCCCCCCCCCCC[n+]1ccc(C)c(C)c1.[I-]` the value was 2.93; for `CCC(C)c1ccccc1OC(=O)N(C)C` (stereo unspecified), 3.31.
The result for `Cn1nnc2ccccc21` reads 1.13.
The result for `O=C1CN=C(c2ccc(Br)cc2)c2cc(Br)ccc2N1` reads 4.04.
Regarding `CCC(C)C1=Nc2ccc(Cl)cc2S(=O)(=O)N1` (stereo unspecified), the logP amounted to 2.47.
`OCCCCn1nnc2ccccc21` came in with a logP of 1.03.
Molecule `CCNP(=O)(OC)SC` (stereo unspecified) came in with a logP of 0.07.
`O=C(c1ccncc1)c1ccc(Cl)cc1` returned a logP of 2.61.
In the case of `CCOC(=O)C(=Cc1ccc(OC)c(OC)c1)C(C)=O`, the logP came out at 2.02.
Consider `NC(=O)c1ccc(Cl)nn1`, for which the logP was 0.
The result for `CSC1=NC(=O)C(=Cc2ccc([N+](=O)[O-])o2)S1` reads 1.41.
In the case of `COCCN(CCOC)/N=N/c1nc[nH]c1C(N)=O`, the logP was 0.03.
`COc1ccc(Cc2cnc(N)nc2N)cc1Nc1ccccc1` returned a logP of 2.88.
As to `COc1c(Cl)cc(Cc2cnc(N)nc2N)cc1Cl`, the logP worked out at 2.78.
In turn, `Nc1ncnc2ccccc12` yielded a logP of 1.28.
Molecule `O=[N+]([O-])c1cccc(C2NCCS2)c1` (stereo unspecified) came in with a logP of 1.59.
The molecule `CC(=O)C(C#N)=NNc1ccc(Cl)cc1C` displayed a logP of 4.28.
For `CC(=O)NC1CC1c1ccccc1` (stereo unspecified) the value was 1.43; for `COP(=O)(NCC(C)C)Oc1cc(Cl)c(Cl)cc1Cl` (stereo unspecified), 3.86.
On to `O=C(O)COc1cccc(SC(F)(F)F)c1`, for which the logP stood at 2.86.
`COc1cc(CC(C)N)cc(OC)c1OC` (stereo unspecified) registered a logP of 1.21.
`O=C1CCC(=O)N1c1ccc(Cl)cc1` displayed a logP of 0.96.
The molecule `COc1ccc(N(C)C(C)=O)cc1` returned a logP of 0.72.
In the case of `CCC(=O)CC(=O)CC`, the logP worked out at 1.12.
As to `CNc1nc(N(C)C)nc(N(C)C)n1`, the logP was found to be 1.83.
As to `O=[N+]([O-])c1c(Cl)c[n+]([O-])c2ccccc12`, the logP was 1.33.
`CSC(C)=NOC(=O)N(C)SN(C)C(=O)c1ccc(Cl)cc1` yielded a logP of 2.6.
As to `CCCNCC(=O)NC(=O)C=[N+]=[N-]`, the logP was -0.24.
The result for `CCCCNC(=O)NN` reads -0.6; that for `CC1CN(C)C(=Nc2ncc([N+](=O)[O-])s2)N1` (stereo unspecified), 1.95; that for `CC(C)(C)CC(N)C(=O)O` (stereo unspecified), -1.42.
The result for `O=S1(=O)N=C(c2ccccc2)Nc2ccccc21` reads 1.78.
`C[N+](C)(C)Cc1cccc(C(N)=O)c1.[Br-]` showed a logP of -2.8.
Consider `Clc1ccc(-c2ccc(Cl)cc2Cl)cc1`, for which the logP came to 5.62.
In turn, `O=[N+]([O-])c1cnc(NC2=NCCN2CCO)s1` came in with a logP of 1.23.
`O=C1CCC2CCCCC2C1` (stereo unspecified) had a logP of 1.97.
For `Nc1cc(OCC(=O)O)ccc1Cl`, the logP was determined as 1.16.
Take `CC(=O)C(=Cc1ccc(F)cc1)C(C)=O`: the logP turned out to be 1.65.
In turn, `CC(C)CC1=Nc2cc(Cl)ccc2S(=O)(=O)N1` had a logP of 2.35.
For `Clc1cc2ccccc2nn1` the value was 1.57; for `Cc1ccccc1C(=N)c1ccccc1`, 3.21; for `Cc1ccc(CN(C)N=Nc2ccc(C(=O)O)cc2)cc1`, 4.75.
For the molecule `CC1CN(N=O)C(C)CN1N=O` (stereo unspecified), the logP was determined as 0.15.
`O=C1CN=C(c2ccccc2)c2ccccc2N1` displayed a logP of 2.18.
Molecule `O=C1NC(=O)C(=Cc2ccc([N+](=O)[O-])o2)S1` registered a logP of 0.63.
`CCCOC(=O)NC` had a logP of 0.95.
For `CN(C)c1ccc(N=C2C=CC(=O)C=C2)cc1`, the logP is 2.02.
`CC(C)(C)C(=O)NN1CC=CCC1` returned a lipophilicity (logP) of 1.03.
Take `NC1=NC(=O)C(=Cc2ccc([N+](=O)[O-])o2)S1`: the logP amounted to 1.09.
Take `N#CCN(CC#N)N=O`: the log partition coefficient (logP) came to 0.04.
The molecule `CN(C)c1nnc(-c2ccccc2)c2ccccc12` showed a logP of 3.22.
The molecule `COc1cc(Cc2cnc(N)nc2N)cc(OC)c1-n1cccc1` yielded a logP of 1.78.
The result for `OCC1OC(SCCCc2ccccc2)C(O)C(O)C1O` (stereo unspecified) reads 0.38.
In the case of `OCC1OC(Oc2cc(OC3OC(CO)C(O)C(O)C3O)c(I)cc2I)C(O)C(O)C1O` (stereo unspecified), the logP is -0.25.
Regarding `O=C1CCC(=O)N1c1cccc(C(F)(F)F)c1`, the logP is 1.26.
The result for `Nc1ccc2c(c1)C(c1ccccc1)=NCC(=O)N2` reads 1; that for `COc1cc(Cc2cnc(N)nc2N)cc(I)c1OC`, 2.33.
For `Clc1cccc(Cl)c1-c1ccccc1` the value was 4.98.
The result for `CCOC(=O)C(=Cc1ccccc1)C(=O)OCC` reads 3.13.
Molecule `Nc1nc2ccccc2o1` yielded a logP of 1.53.
The result for `CC(=O)N(c1ccccc1)S(C)(=O)=O` reads 0.29; that for `O=c1nc(-c2ccccc2)c2cc(Br)ccc2[nH]1`, 2.71.
